Assay results as given in patent publication US9650339B2, “Inhibitors of histone demethylases” (Gilead Sciences, Inc., priority 2013, dated 2017).

Assays:
Type in all cases: cell-based
KDM2A = molecular target: T1, KDM2A (Homo sapiens, UniProt Q9Y2K7); experiment: Histone lysine demethylase immunofluorescence assay, U2OS cells transfected with KDM2A; settings: U2OS cells transfected with pCMVHA KDM2A; mark detected H3K36me2; 20 hours
T1 construct: Full length; host or cells: U2OS
T1 sequence (Q9Y2K7 1-1162): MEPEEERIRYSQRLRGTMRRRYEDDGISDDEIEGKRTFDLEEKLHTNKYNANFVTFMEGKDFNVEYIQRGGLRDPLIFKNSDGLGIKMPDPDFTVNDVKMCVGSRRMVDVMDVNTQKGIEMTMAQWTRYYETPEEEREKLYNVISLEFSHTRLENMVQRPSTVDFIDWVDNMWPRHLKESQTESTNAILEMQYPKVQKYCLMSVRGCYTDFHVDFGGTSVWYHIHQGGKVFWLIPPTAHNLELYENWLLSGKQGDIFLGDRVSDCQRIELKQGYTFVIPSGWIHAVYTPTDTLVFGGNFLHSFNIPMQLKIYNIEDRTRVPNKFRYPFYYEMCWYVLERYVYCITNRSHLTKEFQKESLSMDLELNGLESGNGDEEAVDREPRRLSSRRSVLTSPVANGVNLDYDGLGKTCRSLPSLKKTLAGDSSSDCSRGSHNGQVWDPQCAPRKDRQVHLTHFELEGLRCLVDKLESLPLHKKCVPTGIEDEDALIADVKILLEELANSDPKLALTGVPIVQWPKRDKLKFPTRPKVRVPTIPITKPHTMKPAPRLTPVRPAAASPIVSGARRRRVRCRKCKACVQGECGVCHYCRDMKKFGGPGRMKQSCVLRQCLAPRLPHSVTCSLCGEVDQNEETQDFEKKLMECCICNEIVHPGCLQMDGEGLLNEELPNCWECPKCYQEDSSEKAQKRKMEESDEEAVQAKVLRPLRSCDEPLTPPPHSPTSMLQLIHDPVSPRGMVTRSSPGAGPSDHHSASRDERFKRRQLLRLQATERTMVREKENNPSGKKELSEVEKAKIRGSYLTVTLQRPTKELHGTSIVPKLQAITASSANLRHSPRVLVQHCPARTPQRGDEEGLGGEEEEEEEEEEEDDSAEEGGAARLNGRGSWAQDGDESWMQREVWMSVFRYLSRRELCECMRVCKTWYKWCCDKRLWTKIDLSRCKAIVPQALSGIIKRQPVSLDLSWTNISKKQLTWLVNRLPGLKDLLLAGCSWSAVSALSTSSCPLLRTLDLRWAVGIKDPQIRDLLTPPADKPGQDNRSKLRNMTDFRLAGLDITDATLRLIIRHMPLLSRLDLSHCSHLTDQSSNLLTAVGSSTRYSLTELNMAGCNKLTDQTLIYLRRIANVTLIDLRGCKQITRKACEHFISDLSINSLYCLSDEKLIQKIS
Description: (§1) U2OS cells were seeded 24 hours before transfection. Transfection was performed with Fugene HD transfection reagent as recommended by the manufacturer. 6 hours after transfection, the cells were harvested and seeded into multi well plates into media containing compound. The media used was DMEM containing 10% FBS and pen/strep. 20 hours after incubation of cells with compounds, the cells were washed in PBS, harvested by fixation with formaldehyde 4% aqueous solution, and washed in PBS. Subsequently, the cells were permeabilized in PBS with 0.2% Triton X-100 for. Blocking was performed in PBS with 0.2% Triton X-100 and 5% FBS. The cells were incubated with primary antibodies in blocking solution over night at 4° C. The primary antibodies used in the assays were HA.11 (Covance, MMS-101P) and the antibody detecting the mark specified in the table below. After incubation with primary antibodies, the cells were washed with PBS, incubated with secondary antibodies (Alexa fluor 594 goat anti rabbit IgG, Invitrogen, A11012; Alexa flour 488 donkey anti mouse IgG, Invitrogen, A21202) and Hoechst, (Sigma, 33342) in blocking solution, and washed again with PBS. Finally, PBS was added and high throughput imaging and analysis were performed by an IN Cell Analyzer 1000 (GE Healthcare). The robot software analyzed individual cells and divided these into HA+ (transfected cells) and HA− (non-transfected cells). The IC50 values were based on an average measure of the staining of the mark specified in the table below in the transfected cells.

KDM4A = molecular target: T2, KDM4A (Homo sapiens, UniProt O75164); experiment: Histone lysine demethylase immunofluorescence assay, U2OS cells transfected with KDM4A; settings: U2OS cells transfected with pCMVHA KDM4A; mark detected H3K9me3; 20 hours
T2 construct: Full length; host or cells: U2OS
T2 sequence (O75164 1-1064): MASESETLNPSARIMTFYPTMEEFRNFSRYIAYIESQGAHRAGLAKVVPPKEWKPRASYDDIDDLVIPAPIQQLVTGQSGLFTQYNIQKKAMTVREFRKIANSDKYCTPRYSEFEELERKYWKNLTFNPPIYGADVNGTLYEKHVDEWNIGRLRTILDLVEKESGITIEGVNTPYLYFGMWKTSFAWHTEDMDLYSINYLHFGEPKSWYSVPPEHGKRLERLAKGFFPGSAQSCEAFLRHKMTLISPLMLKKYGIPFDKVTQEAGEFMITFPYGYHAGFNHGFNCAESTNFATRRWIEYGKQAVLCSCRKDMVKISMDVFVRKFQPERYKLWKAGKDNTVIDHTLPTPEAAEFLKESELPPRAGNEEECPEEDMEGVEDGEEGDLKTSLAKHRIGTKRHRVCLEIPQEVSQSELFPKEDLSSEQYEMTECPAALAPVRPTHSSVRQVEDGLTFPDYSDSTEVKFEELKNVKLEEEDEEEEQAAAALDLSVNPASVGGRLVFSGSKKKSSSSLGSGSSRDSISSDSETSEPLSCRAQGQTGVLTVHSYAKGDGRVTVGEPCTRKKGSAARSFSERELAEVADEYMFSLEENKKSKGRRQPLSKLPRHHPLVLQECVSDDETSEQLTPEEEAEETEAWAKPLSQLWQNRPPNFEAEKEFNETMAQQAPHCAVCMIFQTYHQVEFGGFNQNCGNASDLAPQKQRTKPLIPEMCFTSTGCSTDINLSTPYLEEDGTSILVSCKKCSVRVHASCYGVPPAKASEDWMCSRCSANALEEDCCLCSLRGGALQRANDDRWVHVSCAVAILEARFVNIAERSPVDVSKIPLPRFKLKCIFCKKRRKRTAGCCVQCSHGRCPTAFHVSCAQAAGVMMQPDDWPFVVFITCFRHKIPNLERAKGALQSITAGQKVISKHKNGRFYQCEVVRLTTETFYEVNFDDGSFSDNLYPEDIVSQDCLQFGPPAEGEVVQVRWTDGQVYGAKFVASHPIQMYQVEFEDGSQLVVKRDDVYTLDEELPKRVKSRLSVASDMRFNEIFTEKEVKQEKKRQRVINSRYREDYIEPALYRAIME
Description: as §1

KDM6B = molecular target: T3, KDM6B (Homo sapiens, UniProt O15054); experiment: Histone lysine demethylase immunofluorescence assay, U2OS cells transfected with KDM6B; settings: U2OS cells transfected with pCMVHA KDM6B; mark detected H3K27me2; 20 hours
T3 construct: (a.a. 1026-1682); host or cells: U2OS
Description: as §1

T3 sequence (O15054 1026-1682 isoform O15054-1): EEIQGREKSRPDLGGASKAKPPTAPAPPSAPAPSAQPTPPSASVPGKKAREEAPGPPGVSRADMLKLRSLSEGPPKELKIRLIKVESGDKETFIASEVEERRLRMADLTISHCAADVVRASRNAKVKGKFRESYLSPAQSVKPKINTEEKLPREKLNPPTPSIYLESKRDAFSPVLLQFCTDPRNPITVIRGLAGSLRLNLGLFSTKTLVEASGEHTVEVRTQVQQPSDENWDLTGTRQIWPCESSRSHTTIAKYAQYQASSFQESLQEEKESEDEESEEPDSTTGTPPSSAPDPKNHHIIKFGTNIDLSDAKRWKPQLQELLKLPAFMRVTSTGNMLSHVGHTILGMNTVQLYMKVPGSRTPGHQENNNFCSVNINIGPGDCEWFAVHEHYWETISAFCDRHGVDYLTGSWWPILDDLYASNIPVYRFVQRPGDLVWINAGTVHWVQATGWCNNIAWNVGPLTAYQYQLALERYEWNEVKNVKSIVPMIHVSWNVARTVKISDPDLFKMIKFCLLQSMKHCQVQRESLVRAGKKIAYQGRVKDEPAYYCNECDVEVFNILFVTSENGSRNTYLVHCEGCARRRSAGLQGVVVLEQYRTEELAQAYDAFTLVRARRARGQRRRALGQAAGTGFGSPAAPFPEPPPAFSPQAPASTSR

Row | IC50 (KDM2A) [nM] | IC50 (KDM4A) [nM] | IC50 (KDM6B) [nM] | Compound
1 | > 2500 | 250 to 2500 | > 2500 | CCN(CCN(C)C)C(=O)CNCc1cc(CNC(=O)C(F)(F)F)ccn1 [Compound 25, N-[(2-{[({[2-(dimethylamino)ethyl]-(ethyl)carbamoyl}-methyl)amino]methyl}-pyrtdin-4-yl)methyl]-2,2,2-trifluoroacetamide]
2 | > 2500 | < 250 | > 2500 | CCN(CCN(C)C)C(=O)CNCc1cc(C2OCC3(CC3)CN2C(=O)C(F)(F)F)ccn1 (stereo not drawn) [Compound 91, N-[2--(dimethylamino)-ethyl]-N-ethyl-2-[({4-[7-(trifluoroacetyl)-5-oxa-7-azaspiro[2.5]-octan-6-yl]pyridin-2-yl}methyl)amino]-acetamide]
